Results reported in PubChem BioAssay (NCI).
“And” between values parts separate entries of the source, which are not always exact repeats. Equal entries are not always repeated.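 Exposure lasted 48 hours, with cells grown in 96-well plates and compounds tested at five concentrations. The concentration for 50% growth inhibition is given as GI50. TGI is the concentration that stops growth completely.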

Legend:
Assay in all cases: NCI-60 cell line screen, 48 h
786-0 renal = system: 786-0 renal
A498 renal = system: A498 renal
A549 NSCLC = system: A549 NSCLC
ACHN renal = system: ACHN renal
BT-549 breast = system: BT-549 breast
CAKI-1 renal = system: CAKI-1 renal
CCRF-CEM leukemia = system: CCRF-CEM leukemia
COLO 205 colon = system: COLO 205 colon
DU-145 prostate = system: DU-145 prostate
EKVX NSCLC = system: EKVX NSCLC
HCC-2998 colon = system: HCC-2998 colon
HCT-116 colon = system: HCT-116 colon
HCT-15 colon = system: HCT-15 colon
HL-60(TB) leukemia = system: HL-60(TB) leukemia
HOP-62 NSCLC = system: HOP-62 NSCLC
HOP-92 NSCLC = system: HOP-92 NSCLC
HS 578T breast = system: HS 578T breast
HT29 colon = system: HT29 colon
IGROV1 ovarian = system: IGROV1 ovarian
K-562 leukemia = system: K-562 leukemia
KM12 colon = system: KM12 colon
LOX IMVI melanoma = system: LOX IMVI melanoma
M14 melanoma = system: M14 melanoma
MALME-3M melanoma = system: MALME-3M melanoma
MCF7 breast = system: MCF7 breast
MDA-MB-231 breast = system: MDA-MB-231 breast
MDA-MB-435 = system: MDA-MB-435
MDA-N = system: MDA-N
MOLT-4 leukemia = system: MOLT-4 leukemia
NCI-H226 lung = system: NCI-H226 lung
NCI-H23 lung = system: NCI-H23 lung
NCI-H460 lung = system: NCI-H460 lung
NCI-H522 lung = system: NCI-H522 lung
NCI/ADR-RES ovarian = system: NCI/ADR-RES ovarian
OVCAR-3 ovarian = system: OVCAR-3 ovarian
OVCAR-4 ovarian = system: OVCAR-4 ovarian
OVCAR-5 ovarian = system: OVCAR-5 ovarian
OVCAR-8 ovarian = system: OVCAR-8 ovarian
RPMI-8226 leukemia = system: RPMI-8226 leukemia
RXF 393 renal = system: RXF 393 renal
SF-268 CNS = system: SF-268 CNS
SF-295 CNS = system: SF-295 CNS
SF-539 CNS = system: SF-539 CNS
SK-MEL-2 melanoma = system: SK-MEL-2 melanoma
SK-MEL-28 melanoma = system: SK-MEL-28 melanoma
SK-MEL-5 melanoma = system: SK-MEL-5 melanoma
SK-OV-3 ovarian = system: SK-OV-3 ovarian
SNB-19 CNS = system: SNB-19 CNS
SNB-75 CNS = system: SNB-75 CNS
SR leukemia = system: SR leukemia
SW-620 colon = system: SW-620 colon
T-47D breast = system: T-47D breast
TK-10 renal = system: TK-10 renal
U251 CNS = system: U251 CNS
UACC-257 melanoma = system: UACC-257 melanoma
UACC-62 melanoma = system: UACC-62 melanoma
UO-31 renal = system: UO-31 renal

For `CC(C)[C@]12O[C@H]1[C@@H]1O[C@]13[C@]1(O[C@H]1C[C@H]1C4=C(CC[C@@]13C)C(=O)OC4)[C@@H]2O`, the GI50 (786-0 renal) was 30.3 nM, the TGI (786-0 renal) was over 100000 nM and the GI50 (A498 renal) was 27.4 nM. The TGI (A498 renal) was 45.4 nM and 82.8 nM, the GI50 (A549 NSCLC) was 27.6 nM and 24.6 nM and the TGI (A549 NSCLC) was over 100000 nM. The GI50 (ACHN renal) was 10.2 nM, the TGI (ACHN renal) was over 100000 nM and the GI50 (BT-549 breast) was 21.4 nM and < 13 nM. For the same compound, the TGI (BT-549 breast) was 178 nM and 34.7 nM, the GI50 (CAKI-1 renal) was 11.1 nM and < 10 nM and the TGI (CAKI-1 renal) was over 100000 nM. For the same compound, the GI50 (CCRF-CEM leukemia) was 25.5 nM, the TGI (CCRF-CEM leukemia) was 297 nM and the GI50 (COLO 205 colon) was 11.7 nM. The TGI (COLO 205 colon) was 21.9 nM and 36.6 nM, the GI50 (DU-145 prostate) was 16.3 nM and the TGI (DU-145 prostate) was over 100000 nM. For the same compound, the GI50 (EKVX NSCLC) was 16.6 nM, the TGI (EKVX NSCLC) was 99.4 nM and 283 nM and the GI50 (HCC-2998 colon) was 21.2 nM. The TGI (HCC-2998 colon) was 91.2 nM and 761 nM, the GI50 (HCT-116 colon) was under 10 nM and the TGI (HCT-116 colon) was over 100000 nM. For the same compound, the GI50 (HCT-15 colon) was 12.2 nM, the TGI (HCT-15 colon) was over 2930 nM and the GI50 (HL-60(TB) leukemia) was under 11.1 nM. It also gave a TGI (HL-60(TB) leukemia) of 49.5 nM, a GI50 (HOP-62 NSCLC) of 24.8 nM and a GI50 (HOP-92 NSCLC) of 20.1 nM. For the same compound, the TGI (HOP-92 NSCLC) was 107 nM and 80.8 nM, the TGI (HS 578T breast) was 55.4 nM and 71.8 nM and the GI50 (HT29 colon) was 29 nM. For the same compound, the TGI (HT29 colon) was over 100000 nM, the GI50 (IGROV1 ovarian) was 25.7 nM and the TGI (IGROV1 ovarian) was over 100000 nM. It also gave a GI50 (K-562 leukemia) of 15.1 nM, a TGI (K-562 leukemia) of over 100000 nM and a GI50 (KM12 colon) of 102 nM. It also gave a GI50 (LOX IMVI melanoma) of under 10 nM, a TGI (LOX IMVI melanoma) of 25.1 nM and a GI50 (M14 melanoma) of 15.8 nM. For the same compound, the TGI (M14 melanoma) was 31.2 nM and 36.1 nM, the GI50 (MALME-3M melanoma) was 18 nM and the TGI (MALME-3M melanoma) was 32.8 nM and 46.7 nM. The GI50 (MCF7 breast) was under 10 nM, the GI50 (MDA-MB-231 breast) was 16.8 nM and the TGI (MDA-MB-231 breast) was 116 nM. For the same compound, the GI50 (MDA-MB-435) was 12.2 nM, the TGI (MDA-MB-435) was 21.4 nM and 29.6 nM and the TGI (MDA-N) was 23.8 nM. The GI50 (MOLT-4 leukemia) was 12.8 nM, the TGI (MOLT-4 leukemia) was 34.8 nM and the GI50 (NCI-H226 lung) was under 11 nM. The TGI (NCI-H226 lung) was 73.1 nM and 120 nM, the TGI (NCI-H23 lung) was 15.6 nM and the GI50 (NCI-H460 lung) was under 10 nM. For the same compound, the TGI (NCI-H460 lung) was over 100000 nM, the GI50 (NCI-H522 lung) was 11.4 nM and the TGI (NCI-H522 lung) was 157 nM and 36.6 nM. The TGI (NCI/ADR-RES ovarian) was 92.2 nM, the GI50 (OVCAR-3 ovarian) was 19.8 nM and the TGI (OVCAR-3 ovarian) was 93.2 nM and 377 nM. For the same compound, the GI50 (OVCAR-4 ovarian) was 17.4 nM, the GI50 (OVCAR-5 ovarian) was 32.5 nM and 28.2 nM and the TGI (OVCAR-5 ovarian) was over 100000 nM. For the same compound, the GI50 (OVCAR-8 ovarian) was 28.5 nM, the GI50 (RPMI-8226 leukemia) was 3.6 nM and 11 nM and the TGI (RPMI-8226 leukemia) was 26.5 nM and 91.5 nM. The GI50 (RXF 393 renal) was 17.2 nM and < 10.7 nM, the TGI (RXF 393 renal) was 35.3 nM and < 16.9 nM and the TGI (SF-268 CNS) was 241 nM and 218 nM. For the same compound, the TGI (SF-295 CNS) was 646 nM and 934 nM, the GI50 (SF-539 CNS) was 14.6 nM and the TGI (SF-539 CNS) was 26 nM and 35.8 nM. For the same compound, the GI50 (SK-MEL-2 melanoma) was 15.7 nM, the TGI (SK-MEL-2 melanoma) was 19.5 nM and 32.3 nM and the GI50 (SK-MEL-28 melanoma) was 11.9 nM. The TGI (SK-MEL-28 melanoma) was 22.6 nM and 32 nM, the GI50 (SK-MEL-5 melanoma) was 13.1 nM and the TGI (SK-MEL-5 melanoma) was 21.3 nM and 26.5 nM. For the same compound, the TGI (SK-OV-3 ovarian) was over 100000 nM, the GI50 (SNB-19 CNS) was 62.7 nM and the TGI (SNB-19 CNS) was over 100000 nM. The GI50 (SNB-75 CNS) was 16.8 nM, the TGI (SNB-75 CNS) was 35 nM and 39.8 nM and the GI50 (SR leukemia) was 7.13 nM. The TGI (SR leukemia) was 48.8 nM, the GI50 (SW-620 colon) was under 10 nM and the GI50 (T-47D breast) was 21.1 nM and 29.2 nM. It also gave a GI50 (TK-10 renal) of 27.8 nM, a TGI (TK-10 renal) of over 100000 nM and a GI50 (U251 CNS) of 37.9 nM. The TGI (U251 CNS) was over 100000 nM, the GI50 (UACC-257 melanoma) was 10.1 nM and 14.8 nM and the TGI (UACC-257 melanoma) was 34.1 nM and 47.6 nM. The GI50 (UACC-62 melanoma) was 11 nM, the TGI (UACC-62 melanoma) was 24.1 nM and 26 nM and the GI50 (UO-31 renal) was 18.3 nM. It also gave a TGI (UO-31 renal) of over 100000 nM.
